{"source": "patent US20200157088A1", "about": "“BENZENE FUSED HETEROCYCLIC COMPOUND AND USE THEREOF” (TAIWANJ PHARMACEUTICALS CO., LTD., priority 2017, published 2020)"}
{"biological_target": "T1, autotaxin (Homo sapiens, UniProt Q13822)", "T1 construct": "purchased Cayman 10803", "experiment": "Autotaxin inhibitor screening assay (choline release from LPC)", "format": "biochemical", "details": "not given", "experimental": "(§1) Autotaxin activity was measured by choline release from LPC in presence or absence of compound.\n(§2) Twenty (20) ng autotaxin (10803, Cayman, MI, USA) was incubated with 100 μM 14:0 LPC (855575P, Avanti, AL, USA) in a final volume of 100 μL buffer containing 50 mM Tris pH 8.0, 0.01% Triton X-100, 50 mM CaCl2, 1 unit/ml choline oxidase, 2 unit/ml HRP, 2 mM homovanilic acid (HVA). The relative amount of released choline was measured by HVA fluorescence in a 96-well plate. Fluorescent intensity was determined at λex/λem=320/450 nm every 60 seconds for 90 minutes with a SpectraMax i3 (Molecular Devices, CA, USA). Data analysis was performed using GraphPad Prism (GraphPad, La Jolla Calif., USA).\n(§3) Inhibition %=[1−SlopeTA−SlopeBlank)/(Slopevehicle−SlopeBlank)]×100%", "units": {"inhibition at 1 µM": "%"}}
{"smiles": "CN(C(=O)OCc1cc(F)cc(Cl)c1)C1CCc2ccc(C3=CCN(C(=O)CN4C(=O)CSC4=S)CC3)cc21", "note": "(centres unmarked) [Compound 97]", "inhibition at 1 µM": "> 80"}
{"smiles": "CCC1Oc2ccc(C3=CCN(C(=O)CN4CCOCC4)CC3)cc2C1N(C)C(=O)OCc1cc(Cl)cc(Cl)c1", "note": "(centres unmarked) [Compound 120]", "inhibition at 1 µM": "< 50"}
{"biological_target": "T1, autotaxin", "experiment": "Autotaxin inhibitor screening assay (choline release from LPC)", "format": "biochemical", "details": "inhibition of autotaxin enzyme activity at 1 μM compound; 100 μM 14:0 LPC; read-out: Inhibition", "experimental": "as §1, §2, §3", "units": {"inhibition at 1 µM": "%"}}
{"smiles": "Cc1cc(COC(=O)N(C)C2CCc3ccc(C4=CCN(C(=O)CN5C(=O)CSC5=S)CC4)cc32)cc(C(F)(F)F)c1", "note": "(centres unmarked) [Compound 94]", "inhibition at 1 µM": "> 80"}
{"smiles": "CN(C(=O)OCc1cc(C(F)(F)F)cc(C(F)(F)F)c1)C1CCc2ccc(C3=CCN(C(=O)CN4C(=O)CSC4=S)CC3)cc21", "note": "(centres unmarked) [Compound 95]", "inhibition at 1 µM": "> 80"}
{"smiles": "CN(C(=O)OCc1cc(Cl)ccc1Cl)C1CCc2ccc(C3=CCN(C(=O)CN4C(=O)CSC4=S)CC3)cc21", "note": "(centres unmarked) [Compound 96]", "inhibition at 1 µM": "> 80"}
{"smiles": "Cc1oc2ccc(C3=CCN(C(=O)CN4C(=O)CSC4=S)CC3)cc2c1N(C)C(=O)OCc1cc(C(F)(F)F)cc(C(F)(F)F)c1", "note": "[Compound 102]", "inhibition at 1 µM": "> 80"}
{"smiles": "Cc1oc2ccc(C3=CCN(C(=O)CS(C)(=O)=O)CC3)cc2c1N(C)C(=O)OCc1cc(C(F)(F)F)cc(C(F)(F)F)c1", "note": "[Compound 103]", "inhibition at 1 µM": "50 to 80"}
{"smiles": "CCN(C(=O)OCc1cc(C(F)(F)F)cc(C(F)(F)F)c1)c1c(C)oc2ccc(C3=CCN(C(=O)CN4C(=O)CSC4=S)CC3)cc12", "note": "[Compound 105]", "inhibition at 1 µM": "> 80"}
{"smiles": "Cc1c(N(C)C(=O)OCc2cc(C(F)(F)F)cc(C(F)(F)F)c2)c2cc(C3=CCN(C(=O)CN4C(=O)CSC4=S)CC3)ccc2n1C", "note": "[Compound 109]", "inhibition at 1 µM": "50 to 80"}
{"smiles": "COc1cc(C2=CCN(C(=O)CN3C(=O)CSC3=S)CC2)cc2c(N(C)C(=O)OCc3cc(C(F)(F)F)cc(C(F)(F)F)c3)coc12", "note": "[Compound 112]", "inhibition at 1 µM": "> 80"}
{"smiles": "CC1Cc2ccc(C3=CCN(C(=O)CN4C(=O)CSC4=S)CC3)cc2C1N(C)C(=O)OCc1cc(Cl)cc(Cl)c1", "note": "(centres unmarked) [Compound 117]", "inhibition at 1 µM": "> 80"}
{"smiles": "CCC1Cc2ccc(C3=CCN(C(=O)CN4C(=O)CSC4=S)CC3)cc2C1N(C)C(=O)OCc1cc(Cl)cc(Cl)c1", "note": "(centres unmarked) [Compound 119]", "inhibition at 1 µM": "50 to 80"}
{"smiles": "CCC1Cc2ccc(C3=CCN(C(=O)CS(C)(=O)=O)CC3)cc2C1N(C)C(=O)OCc1cc(Cl)cc(Cl)c1", "note": "(centres unmarked) [Compound 121]", "inhibition at 1 µM": "< 50"}
{"smiles": "O=C(Nc1noc2ccc(C3=CCN(C(=O)CN4C(=O)CSC4=S)CC3)cc12)OCc1cc(Cl)cc(Cl)c1", "note": "[Compound 127]", "inhibition at 1 µM": "50 to 80"}
{"smiles": "CN(C(=O)OCc1cc(Cl)cc(Cl)c1)c1noc2ccc(C3=CCN(C(=O)CN4C(=O)CSC4=S)CC3)cc12", "note": "[Compound 128]", "inhibition at 1 µM": "50 to 80"}
{"smiles": "CCN(C(=O)OCc1cc(Cl)cc(Cl)c1)c1noc2ccc(C3=CCN(C(=O)CN4C(=O)CSC4=S)CC3)cc12", "note": "[Compound 129]", "inhibition at 1 µM": "50 to 80"}
{"smiles": "CCN(C(=O)OCc1cc(Cl)cc(Cl)c1)C1CCc2ccc(C3=CCN(C(=O)CN4C(=O)CSC4=S)CC3)cc21", "note": "(centres unmarked) [Compound 130]", "inhibition at 1 µM": "> 80"}
{"smiles": "O=C(Nc1noc2ccc(C3=CCN(C(=O)CN4C(=O)CSC4=S)CC3)cc12)OCc1cc(C(F)(F)F)cc(C(F)(F)F)c1", "note": "[Compound 131]", "inhibition at 1 µM": "50 to 80"}
{"smiles": "CN(C(=O)OCc1cc(C(F)(F)F)cc(C(F)(F)F)c1)c1noc2ccc(C3=CCN(C(=O)CN4C(=O)CSC4=S)CC3)cc12", "note": "[Compound 132]", "inhibition at 1 µM": "50 to 80"}
{"smiles": "CCN(C(=O)OCc1cc(C(F)(F)F)cc(C(F)(F)F)c1)c1noc2ccc(C3=CCN(C(=O)CN4C(=O)CSC4=S)CC3)cc12", "note": "[Compound 133]", "inhibition at 1 µM": "50 to 80"}
{"smiles": "CN(C(=O)CCc1cc(Cl)cc(Cl)c1)C1CCc2ccc(C3=CCN(C(=O)CN4C(=O)CSC4=S)CC3)cc21", "note": "(centres unmarked) [Compound 137]", "inhibition at 1 µM": "50 to 80"}
{"smiles": "CN(C(=O)CCc1cc(Cl)cc(Cl)c1)C1CCc2ccc(C3=CCN(C(=O)CCS(C)(=O)=O)CC3)cc21", "note": "(centres unmarked) [Compound 138]", "inhibition at 1 µM": "50 to 80"}
{"smiles": "CN(C(=O)OCc1cc(Cl)cc(Cl)c1)C1CCc2ccc(C3=CCN(C(=O)N4CCN(S(C)(=O)=O)C4=O)CC3)cc21", "note": "(centres unmarked) [Compound 139]", "inhibition at 1 µM": "< 50"}
